Experiment: xn = mol fraction of the nth substance listed
Settings: 100 kPa

CCCCCC[n+]1ccn(C)c1.O=S(=O)([O-])C(F)(F)F + CC(C)O
Settings | speed of sound, 293.15 K [m/s] | speed of sound, 298.15 K [m/s] | speed of sound, 303.15 K [m/s] | speed of sound, 308.15 K [m/s] | speed of sound, 313.15 K [m/s] | viscosity, 293.15 K [mPa·s] | viscosity, 298.15 K [mPa·s] | viscosity, 303.15 K [mPa·s] | viscosity, 308.15 K [mPa·s] | viscosity, 313.15 K [mPa·s]
x2 = 0 | 1376.7 | 1364.8 | 1353.2 | 1342.1 | 1330.9 | 195 | 151 | 116 | 91.1 | 74
x2 = 0.1282 | 1366.5 | – | 1343 | 1331.5 | 1319.9 | 129 | – | 80 | 61.9 | 51.6
x2 = 0.2454 | 1353 | – | 1329.3 | 1316.1 | 1305.8 | 87.1 | – | 57.5 | 44.6 | 37.2
x2 = 0.3506 | 1338.3 | 1326 | – | 1301 | 1290.9 | 60 | 48.3 | – | 31.8 | 27
x2 = 0.469 | 1319.3 | – | 1294 | 1281.8 | 1270.2 | 37.8 | – | 27.2 | 21 | 18
x2 = 0.5728 | 1299.1 | 1286 | 1273.8 | 1260.3 | 1247.8 | 24.5 | 20.4 | 17.1 | 14.2 | 11.9
x2 = 0.6564 | 1280 | 1266.1 | 1253.7 | 1240.2 | 1227.4 | 16.1 | 13.6 | 11.3 | 9.6 | 8.4
x2 = 0.7574 | 1251.3 | 1237.2 | 1223.1 | 1209.3 | 1195.7 | 9.63 | 8.06 | 6.67 | 5.85 | 5.11
x2 = 0.8422 | 1221.4 | 1207.1 | 1192.8 | 1178.4 | 1163.3 | 5.86 | 4.82 | 4.21 | 3.59 | 3.13
x2 = 0.9231 | – | 1175.5 | 1159.6 | 1142.7 | – | – | 3.15 | 2.68 | 2.34 | –

CC(C)O + CCCCCC[n+]1ccn(C)c1.O=S(=O)([O-])C(F)(F)F
x1 = 1
Settings | speed of sound [m/s] | viscosity [mPa·s]
293.15 K | 1155.7 | 2.42
303.15 K | 1120.8 | 1.73
313.15 K | 1085.8 | 1.34

CCCCCC[N+](CC)(CC)CC.O=S(=O)([N-]S(=O)(=O)C(F)(F)F)C(F)(F)F + CC(C)O
Settings | speed of sound, 293.15 K [m/s] | speed of sound, 298.15 K [m/s] | speed of sound, 303.15 K [m/s] | speed of sound, 308.15 K [m/s] | speed of sound, 313.15 K [m/s] | viscosity, 293.15 K [mPa·s] | viscosity, 298.15 K [mPa·s] | viscosity, 303.15 K [mPa·s] | viscosity, 308.15 K [mPa·s] | viscosity, 313.15 K [mPa·s]
x2 = 0 | 1295.3 | 1282.7 | 1270.4 | 1258.3 | 1246.7 | 241 | 187 | 138 | 105 | 80.7
x2 = 0.096 | – | 1277.1 | 1264.8 | 1252.7 | – | – | 136 | 109 | 90 | –
x2 = 0.2045 | 1282.6 | – | 1257.8 | 1246 | 1233.9 | 108 | – | 83.1 | 68.1 | 55.3
x2 = 0.3101 | 1273.6 | – | – | 1236.2 | 1224 | 74.1 | – | – | 49.3 | 41.4
x2 = 0.4056 | 1264 | 1250.9 | 1237.9 | – | 1213.3 | 55.3 | 50.3 | 44.3 | – | 30
x2 = 0.4987 | 1253.3 | – | 1226.8 | – | 1201.7 | 42.1 | – | 31.8 | – | 21.9
x2 = 0.5916 | 1240.8 | 1227.6 | 1214.5 | – | – | 30.7 | 25.3 | 20.9 | – | –
x2 = 0.7088 | 1220.1 | 1206.5 | 1192.8 | 1179.4 | 1166 | 17.9 | 14.4 | 12.1 | 10.4 | 9.33
x2 = 0.8015 | 1198 | 1184 | 1170.3 | – | 1142.5 | 11.2 | 8.83 | 7.01 | – | 4.94
x2 = 0.9193 | 1167 | 1151.8 | 1136.7 | – | 1106.5 | 5.24 | 4.36 | 3.67 | – | 2.38
x2 = 0.9503 | 1161 | – | – | – | – | – | – | – | – | –

CC(C)O + CCCCCC[N+](CC)(CC)CC.O=S(=O)([N-]S(=O)(=O)C(F)(F)F)C(F)(F)F
x1 = 1
Settings | speed of sound [m/s] | viscosity [mPa·s]
293.15 K | 1155.7 | 2.42
313.15 K | 1085.8 | 1.34

Reference: a compilation of properties of binary mixtures (doi:10.1016/j.jct.2022.106789)
